Test results from publication PMC11070402, “New antiproliferative 3-substituted oxindoles inhibiting EGFR/VEGFR-2 and tubulin polymerization” (Molecular Diversity, 2023).
Like-named read-outs stand apart in the source and are kept apart here.

Assays:
MCF-7 cells = assay: Cell cycle analysis by DNA flow cytometry; format: cell-based, human
Description: MCF-7 Cells were placed in a six-well plate at 1 × 10^5 concentration of cells/well and then kept for incubation for 24 h. […] Cells were then collected and fixed for 12 h using ice-cold 70% ethanol at 4 °C. Ethanol was then removed, and cells were washed with cold phosphate buffer saline (PBS, 0.5 ml) and preserved for 30 min at 37 °C. The cells were stained for 30 min with propidium iodide in the dark. A flow cytometer was used to detect DNA content.

PDGFR_ẞ = target: T1, PDGFR_ẞ (Homo sapiens, UniProt P09619); assay: PDGFR_ẞ kinase assay kit (Kinase-Glo MAX); format: biochemical
T1 construct: purchased
T1 sequence (P09619 33-1106, species assumed): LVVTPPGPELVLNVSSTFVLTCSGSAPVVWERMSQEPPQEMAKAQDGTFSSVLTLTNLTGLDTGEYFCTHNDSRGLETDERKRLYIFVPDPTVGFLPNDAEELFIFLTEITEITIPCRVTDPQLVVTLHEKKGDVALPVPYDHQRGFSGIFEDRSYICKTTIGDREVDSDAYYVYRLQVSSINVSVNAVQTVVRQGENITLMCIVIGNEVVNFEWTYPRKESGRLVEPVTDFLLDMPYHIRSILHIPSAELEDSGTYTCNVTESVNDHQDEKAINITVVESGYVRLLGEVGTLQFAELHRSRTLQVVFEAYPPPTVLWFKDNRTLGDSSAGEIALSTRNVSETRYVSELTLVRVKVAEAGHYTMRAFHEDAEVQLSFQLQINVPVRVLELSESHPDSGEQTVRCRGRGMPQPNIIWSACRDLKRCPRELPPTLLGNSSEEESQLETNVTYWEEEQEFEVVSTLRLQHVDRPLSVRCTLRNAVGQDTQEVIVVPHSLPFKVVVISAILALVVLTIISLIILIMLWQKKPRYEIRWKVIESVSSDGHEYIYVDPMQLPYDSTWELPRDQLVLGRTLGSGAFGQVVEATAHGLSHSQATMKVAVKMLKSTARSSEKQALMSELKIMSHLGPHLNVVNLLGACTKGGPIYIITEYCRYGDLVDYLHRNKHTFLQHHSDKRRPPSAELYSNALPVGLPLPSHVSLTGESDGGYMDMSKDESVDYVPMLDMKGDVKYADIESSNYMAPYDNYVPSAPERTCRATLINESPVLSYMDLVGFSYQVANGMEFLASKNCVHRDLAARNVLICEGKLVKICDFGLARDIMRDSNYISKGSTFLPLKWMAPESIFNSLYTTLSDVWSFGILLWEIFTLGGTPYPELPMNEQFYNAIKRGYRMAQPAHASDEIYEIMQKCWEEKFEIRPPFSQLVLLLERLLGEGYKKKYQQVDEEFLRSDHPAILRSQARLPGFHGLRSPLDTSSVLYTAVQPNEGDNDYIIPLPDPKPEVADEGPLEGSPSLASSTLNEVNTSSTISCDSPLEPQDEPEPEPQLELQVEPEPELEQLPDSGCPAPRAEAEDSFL
Description: The receptor tyrosine kinases, namely EGFR, VEGFR-2, and PDGFR_ẞ Kinases Assay Kits, are designed to measure EGFR, VEGFR-2, and PDGFR_ẞ Kinases’ activities for screening and profiling applications using Kinase-Glo® MAX as a detection reagent. The EGFR, VEGFR-2, and PDGFR_ẞ Kinases Assay Kits come in a convenient 96-well format, with enough purified recombinant EGFR enzyme, EGFR substrate, ATP, and kinase assay buffer for 100 enzyme reactions. The master mixture (25 µl per well) was equipped out of Kinase assay buffer (6 µl), ATP (500 µM, 1 µl), PTK substrate (50x, 1 µl), and water (17 µl) and transferred into each well. […] EGFR, VEGFR-2, and PDGFR_ẞ Kinases were softened on ice. Its tube was spun briefly to recover its full content of the tube. These enzymes were diluted with 1 × Kinase assay buffer to 1 ng/ µl. The reaction was initiated by adding 20 µl of diluted EGFR, VEGFR-2, and PDGFR_ẞ enzymes to the wells designated “Positive Control” and “Test Inhibitor Control.” The plate was incubated at 30 °C for 40 min. After the 40-min reaction, the Kinase-Glo Max (50 µl) reagent was added to each well. The plate was covered with aluminum foil and incubated at room temperature for 15 min, and the luminescence was measured using the microplate reader.

[1] = tested on: Human Skin Fibroblasts (HSF) cells; assay: Margin of safety: cytotoxicity on human skin fibroblasts (SRB assay); format: cell-based; details: Human Skin Fibroblasts, SRB assay, 72 h exposure, read-out: HSF (IC50 ± SD)
Description: Cell viability was assessed via SRB assay. Aliquots of 100 µl cell suspension (5 × 10^3 cells) were in 96-well plates and incubated in a complete media for 24 h. […] After 72 h of drug exposure, cells were fixed by replacing media with 150 µl of 10% TCA and incubated at 4 °C for 1 h. The TCA solution was removed, and the cells were washed 5 times with distilled water. Aliquots of […] SRB solution (0.4 w/v) were added and incubated in a dark place at room temperature for 10 min. Plates were washed 3 times with 1% acetic acid and allowed to air-dry overnight. Then, 150 µl of TRIS (10 mM) was added to dissolve the protein-bound SRB stain; the absorbance was measured at 540 nm using a BMG LAB TECH®-FLUO star Omega microplate reader (Ortenberg, Germany).

tubulin = assay: Tubulin polymerization inhibition assay; format: biochemical
[2] = tested on: NCI/ADR-RES (ovarian cancer cell line); assay: NCI one-dose assay, NCI/ADR-RES; format: cell-based; details: Homo sapiens; NCI/ADR-RES; 10 µM single dose, 48 h incubation; read-out: cell growth inhibition % (GI %)
Description: All novel scaffolds 6a–j were carefully selected by the National Cancer Institute (NCI), Bethesda, USA, to elucidate their cytotoxic activity versus 60 human cancer cell lines at 10 µM as a single-dose concentration after a 48 h incubation period.
National Cancer Institution selected all the synthesized 6a–j (NCI), Bethesda, USA, for in vitro one-dose antitumor assay. The methodology protocol for the NCI anticancer screening was reported in detail elsewhere (http://www.dtp.nci.nih.gov). The anticancer assay was performed in full NCI 60 cell lines extracted from nine tumor cell lines, including leukemia, melanoma, lung, colon, CNS, ovarian, renal, prostate, and breast cancer cell lines.

Row | Structure (SMILES) | cell cycle arrest phase (MCF-7 cells; MCF-7 cells, flow cytometry) | Freq G1 (percentage of cells) (MCF-7 cells; MCF-7 treated with IC50 of compound 6f (19.43 μM in method), 24 h, control 40.68) | %inh PDGFRβ (PDGFR_ẞ; conc 0.01 (unit not given)) | %inh PDGFRβ (PDGFR_ẞ; conc 0.1 (unit not given)) | %inh PDGFRβ (PDGFR_ẞ; conc 1 (unit not given)) | %inh PDGFRβ (PDGFR_ẞ; conc 10 (unit not given)) | IC50 (PDGFR_ẞ; read-out: PDGFR_ẞ inhibition (IC50 ± SD)) | IC50 ([1]; Homo sapiens, HSF, 72 h) | IC50 [1] | %inh Tub (tubulin; conc 0.1 (uM printed only in the CA-4 head)) | %inh Tub (tubulin; conc 1 (uM printed only in the CA-4 head)) | %inh Tub (tubulin; conc 10 (uM printed only in the CA-4 head)) | %inh Tub (tubulin; conc 100 (uM printed only in the CA-4 head)) | IC50 (tubulin; read-out: Tubulin polymerization inhibition (IC50 ± SD)) | melting point | inhibition at 10 µM [2]
1 | O=C1Nc2ccccc2C1=Cc1ccc(OCC(=O)c2ccc(Br)cc2)cc1 [Compound 6f, 3-{4-[2-(4-Bromophenyl)-2-oxoethoxy]benzylidene}indolin-2-one] | G0–G1phase | 51.30% | 25.63% | 40.59% | 70.36% | 88.18% | 3.18 ± 0.007 µM | 19.4 µM | 19.4 ± 1.17 µM | 7% | 15% | 56% | 80% | 7.99 ± 0.49 µM |  | 
2 | O=C1Nc2cc(Cl)ccc2C1=Cc1ccc(OCC(=O)c2ccc(Br)cc2)cc1 [Compound 6g, 6-Chloro-3-{4-[2-(4-bromophenyl)-2-oxoethoxy]benzylidene}indolin-2-one] |  |  |  |  |  |  |  |  |  |  |  |  |  |  | 249 to 251 °C | 52.2%
